Test results: patent US7501430B2 (ArQule, Inc., priority 2006, dated 2009)
Where two headings read alike, the source gives them in different places.

Target: T1, mutant B-RAF (Homo sapiens, UniProt P15056, V600E)
T1 construct: purchased Upstate (Charlottesville, Va.)
Assay: RAF biochemical assay (MEK-1 phosphorylation, anti-phospho MEK1/2 detection)
Settings: for inhibition at 10 µM: read-out: Mutant B-RAF % inhibition
Experimental: Materials: The RAF kinases and the anti-phospho MEK1/2 antibody were from Upstate (Charlottesville, Va.). The RAF substrate used was full length N-terminal GST-MEK-1, which was expressed in E. coli and purified in-house by HPLC. All proteins were aliquoted and stored at −80° C.
Compounds were serially diluted in assay buffer containing 1% DMSO and 20 μL of test compound at a concentration 3-fold more than the final concentration, and were added to a polypropylene V-well reaction plate. Vehicle control wells received buffer only with DMSO at equivalent concentrations to the test wells. […] These reaction plates were incubated at room temperature for 30 minutes. Capture of MEK-1 was initiated by transferring 50 μl of the reaction mixture to a Nunc Maxisorp™ microplate that is designed for non-specific protein capture. After 30 minute capture of MEK-1 at room temperature, this plate was washed with TBST (6×200 μL/well) to fully terminate the reaction. The plate was then blocked for 1 hour by the addition of 100 μl/well of Superblock™ in phosphate buffered saline (PBS) blocking reagent. Plate was again washed with TBST (6 times with 200 μL/well), followed by the addition of 70 μL/well of Upstate anti-phospho MEK 1/2 diluted 1:1000 in Pierce Superblock (PBS). After a 60 minute incubation, this plate was washed with TBST (6 times with 200 μL/well), and 70 μL of the secondary antibody (Pierce Alkaline Phosphatase tagged goat anti-rabbit) prepared at 1:4000 in Superblock, were added. After a 45 minute incubation at room temperature, the wells of the microplate were washed with TBST (6 times with 200 μL/well), and thereafter 100 μl/well of Attophos™ fluorescent alkaline phosphatase substrate was added according to the manufacturer's instructions (JBL Scientific).

T1 sequence (P15056 whole entry V600E): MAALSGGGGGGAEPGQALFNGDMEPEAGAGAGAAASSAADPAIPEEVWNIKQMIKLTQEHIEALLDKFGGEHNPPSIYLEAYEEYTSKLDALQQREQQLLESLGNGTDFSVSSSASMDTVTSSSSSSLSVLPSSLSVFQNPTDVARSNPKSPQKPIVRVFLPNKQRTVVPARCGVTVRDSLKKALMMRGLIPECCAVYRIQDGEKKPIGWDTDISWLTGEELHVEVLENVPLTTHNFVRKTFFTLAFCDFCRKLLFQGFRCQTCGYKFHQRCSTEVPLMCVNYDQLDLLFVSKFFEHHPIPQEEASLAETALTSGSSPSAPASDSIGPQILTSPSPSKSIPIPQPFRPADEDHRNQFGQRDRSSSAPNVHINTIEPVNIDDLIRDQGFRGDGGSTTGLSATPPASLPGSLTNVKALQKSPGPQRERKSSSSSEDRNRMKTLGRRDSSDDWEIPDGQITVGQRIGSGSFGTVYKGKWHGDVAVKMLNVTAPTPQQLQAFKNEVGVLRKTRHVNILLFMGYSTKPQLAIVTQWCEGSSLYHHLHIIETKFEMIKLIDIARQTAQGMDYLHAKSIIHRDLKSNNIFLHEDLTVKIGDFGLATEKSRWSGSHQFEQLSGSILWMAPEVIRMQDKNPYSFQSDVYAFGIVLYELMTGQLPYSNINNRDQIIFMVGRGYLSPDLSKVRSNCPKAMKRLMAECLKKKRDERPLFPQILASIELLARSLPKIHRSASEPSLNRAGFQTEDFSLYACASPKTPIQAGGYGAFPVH

COc1ccc(-c2nc3sccn3c2-c2ccnc(NC3CCCN(S(=O)(=O)c4ccc(Cl)cc4)C3)n2)cc1OC (stereo in doubt) [Example 135, N-{(3R)-1-[(4-chlorophenyl)sulfonyl]piperidin-3-yl}-4-[6-(3,4-dimethoxyphenyl)imidazo[2,1-b][1,3]thiazol-5-yl]pyrimidin-2-amine]
IC50 (read-out: Mutant B-RAF IC50): 696 nM

O=S(=O)(c1ccc(F)cc1)N1CCCC(Nc2nccc(-c3c(-c4ccc(F)cc4)nc4sccn34)n2)C1 (stereo not shown) [Example 2, 4-[6-(4-fluorophenyl)imidazo[2,1-b][1,3]thiazol-5-yl]-N-{1-[(4-fluorophenyl)sulfonyl]piperidin-3-yl}pyrimidin-2-amine]
IC50 (read-out: Mutant B-RAF IC50): 458 nM

Fc1ccc(CN2CCCC(Nc3nccc(-c4c(-c5ccc(F)cc5)nc5sccn45)n3)C2)cc1 (stereo not shown) [Example 4]
inhibition at 10 µM (@ 10 uM): 55%

Cc1ccc(NC(=O)N2CCC[C@@H](Nc3nccc(-c4c(-c5ccc(F)cc5)nc5occn45)n3)C2)cc1 [Example 17]
inhibition at 10 µM (@ 10 uM): 16%

CN(C)c1ccc(NC(=O)N2CCC[C@@H](Nc3nccc(-c4c(-c5ccc(F)cc5)nc5occn45)n3)C2)cc1 [Example 24, (3R)-N-[4-(dimethyl-amino)phenyl]-3-({4-[6-(4-fluorophenyl)imidazo[2,1-b][1,3]oxazol-5-yl]pyrimidin-2-yl}amino)piperidine-1-carboxamide]
inhibition at 10 µM (@ 10 uM): 60%

O=C(NCc1ccco1)N1CCC[C@@H](Nc2nccc(-c3c(-c4ccc(F)cc4)nc4occn34)n2)C1 [Example 25, (3R)-3-({4-[6-(4-fluorophenyl)imidazo[2,1-b][1,3]oxazol-5-yl]pyrimidin-2-yl}amino)-N-(2-furylmethyl)piperidine-1-carboxamide]
inhibition at 10 µM (@ 10 uM): 35%

O=C(c1ccccc1)N1CCC[C@@H](Nc2nccc(-c3c(-c4ccc(F)cc4)nc4occn34)n2)C1 [Example 26, N-[(3R)-1-benzoylpiperidin-3-yl]-4-[6-(4-fluorophenyl)imidazo[2,1-b][1,3]oxazol-5-yl]pyrimidin-2-amine]
IC50 (read-out: Mutant B-RAF IC50): 195 nM

COc1ccc(C(=O)N2CCC[C@@H](Nc3nccc(-c4c(-c5ccc(F)cc5)nc5occn45)n3)C2)cc1 [Example 27, 4-[6-(4-fluorophenyl)imi-dazo[2,1-b][1,3]oxazol-5-yl]-N-[(3R)-1-(4-methoxy-benzoyl)piperidin-3-yl]pyri-midin-2-amine]
IC50: 4890 nM

O=C(c1ccc(F)cc1)N1CCC[C@@H](Nc2nccc(-c3c(-c4ccc(F)cc4)nc4occn34)n2)C1 [Example 28, N-[(3R)-1-(4-fluorobenzoyl)piperidin-3-yl]-4-[6-(4-fluorophenyl)imi-dazo[2,1-b][1,3]oxazol-5-yl]pyrimidin-2-amine]
IC50: 184 nM

O=C(COc1ccc(Cl)cc1)N1CCC[C@@H](Nc2nccc(-c3c(-c4ccc(F)cc4)nc4occn34)n2)C1 [Example 29, N-{(3R)-1-[(4-chlorophenoxy)acetyl]piper-idin-3-yl}-4-[6-(4-fluorophenyl)imidazo[2,1-b][1,3]oxazol-5-yl]pyrimidin-2-amine]
IC50 (read-out: Mutant B-RAF IC50): 1820 nM

COCC(=O)N1CCC[C@@H](Nc2nccc(-c3c(-c4ccc(F)cc4)nc4occn34)n2)C1 [Example 30, 4-[6-(4-fluorophenyl)imi-dazo[2,1-b][1,3]oxazol-5-yl]-N-[(3R)-1-(methoxyacetyl)piperidin-3-yl]pyrimidin-2-amine]
IC50: 711 nM

O=C(C1CCCCC1)N1CCC[C@@H](Nc2nccc(-c3c(-c4ccc(F)cc4)nc4occn34)n2)C1 [Example 31, N-[(3R)-1-(cyclohexylcarbonyl)piperidin-3-yl]-4-[6-(4-fluorophenyl)imidazo[2,1-b][1,3]oxazol-5-yl]pyrimidin-2-amine]
IC50 (read-out: Mutant B-RAF IC50): 2950 nM

O=C(c1ccncc1)N1CCC[C@@H](Nc2nccc(-c3c(-c4ccc(F)cc4)nc4occn34)n2)C1 [Example 32, 4-[6-(4-fluorophenyl)imi-dazo[2,1-b][1,3]oxazol-5-yl]-N-[(3R)-1-isonicotinoylpiper-idin-3-yl]pyrimidin-2-amine]
IC50: 362 nM

O=C(c1ccco1)N1CCC[C@@H](Nc2nccc(-c3c(-c4ccc(F)cc4)nc4occn34)n2)C1 [Example 33, 4-[6-(4-fluorophenyl)imi-dazo[2,1-b][1,3]oxazol-5-yl]-N-[(3R)-1-(2-furoyl)piperidin-3-yl]pyrimidin-2-amine]
IC50: 2170 nM

CCC(=O)N1CCC[C@@H](Nc2nccc(-c3c(-c4ccc(F)cc4)nc4occn34)n2)C1 [Example 34, 4-[6-(4-fluorophenyl)imi-dazo[2,1-b][1,3]oxazol-5-yl]-N-[(3R)-1-propionylpiperidin-3-yl]pyrimidin-2-amine]
IC50: 1580 nM

NCC(=O)N1CCC[C@@H](Nc2nccc(-c3c(-c4ccc(F)cc4)nc4occn34)n2)C1 [Example 35, N-[(3R)-1-(aminoacetyl)piper-idin-3-yl]-4-[6-(4-fluorophenyl)imidazo[2,1-b][1,3]oxazol-5-yl]pyrimidin-2-amine]
inhibition at 10 µM (@ 10 uM): 11%

CC(C)(N)C(=O)N1CCC[C@@H](Nc2nccc(-c3c(-c4ccc(F)cc4)nc4occn34)n2)C1 [Example 36, N-[(3R)-1-(2-amino-2-methylpropanoyl)piperidin-3-yl]-4-[6-(4-fluorophenyl)imi-dazo[2,1-b][1,3]oxazol-5-yl]pyrimidin-2-amine]
IC50: 4520 nM

O=C([C@@H]1CCCN1)N1CCC[C@@H](Nc2nccc(-c3c(-c4ccc(F)cc4)nc4occn34)n2)C1 [Example 37, 4-[6-(4-fluorophenyl)imi-dazo[2,1-b][1,3]oxazol-5-yl]-N-[(3R)-1-L-prolylpiperidin-3-yl]pyrimidin-2-amine]
IC50: > 5000 nM

O=C(CCc1ccccc1)N1CCC[C@@H](Nc2nccc(-c3c(-c4ccc(F)cc4)nc4occn34)n2)C1 [Example 38, 4-[6-(4-fluorophenyl)imi-dazo[2,1-b][1,3]oxazol-5-yl]-N-[(3R)-1-(3-phenylpro-panoyl)piperidin-3-yl]pyr-imidin-2-amine]
IC50: 2900 nM

CN(C)c1ccc(C(=O)N2CCC[C@@H](Nc3nccc(-c4c(-c5ccc(F)cc5)nc5occn45)n3)C2)cc1 [Example 39, N-{(3R)-1-[4-(dimethyl-amino)benzoyl]piperidin-3-yl}-4-[6-(4-fluorophenyl)imidazo[2,1-b][1,3]oxazol-5-yl]pyrimidin-2-amine]
IC50 (read-out: Mutant B-RAF IC50): 477 nM

CC(C)CC(=O)N1CCC[C@@H](Nc2nccc(-c3c(-c4ccc(F)cc4)nc4occn34)n2)C1 [Example 40, 4-[6-(4-fluorophenyl)imi-dazo[2,1-b][1,3]oxazol-5-yl]-N-[(3R)-1-(3-methylbuta-noyl)piperidin-3-yl]pyrimidin-2-amine]
IC50: 142 nM

O=C(N1CCOCC1)N1CCC[C@@H](Nc2nccc(-c3c(-c4ccc(F)cc4)nc4occn34)n2)C1 [Example 41, 4-[6-(4-fluorophenyl)imi-dazo[2,1-b][1,3]oxazol-5-yl]-N-[(3R)-1-(morpholin-4-ylcarbonyl)piperidin-3-yl]pyrimidin-2-amine]
inhibition at 10 µM: 38%

O=S(=O)(c1ccccc1)N1CCC[C@@H](Nc2nccc(-c3c(-c4ccc(F)cc4)nc4occn34)n2)C1 [Example 42, 4-[6-(4-fluorophenyl)imi-dazo[2,1-b][1,3]oxazol-5-yl]-N-[(3R)-1-(phenylsulfonyl)piperidin-3-yl]pyrimidin-2-amine]
Mutant B-RAF % inhibition (@ 10 uM): 68 @ 10 uM %

O=S(=O)(c1ccc(Cl)cc1)N1CCC[C@@H](Nc2nccc(-c3c(-c4ccc(F)cc4)nc4occn34)n2)C1 [Example 43, N-{(3R)-1-[(4-chlorophenyl)sulfonyl]piper-idin-3-yl}-4-[6-(4-fluorophenyl)imidazo[2,1-b][1,3]oxazol-5-yl]pyrimidin-2-amine]
IC50 (read-out: Mutant B-RAF IC50): 143 nM

COc1ccc(S(=O)(=O)N2CCC[C@@H](Nc3nccc(-c4c(-c5ccc(F)cc5)nc5occn45)n3)C2)cc1 [Example 44, 4-[6-(4-fluorophenyl)imi-dazo[2,1-b][1,3]oxazol-5-yl]-N-{(3R)-1-[(4-methoxy-phenyl)sulfonyl]piperidin-3-yl}pyrimidin-2-amine]
Mutant B-RAF % inhibition (@ 10 uM): 45 @ 10 uM %

Cc1ccc(S(=O)(=O)N2CCC[C@@H](Nc3nccc(-c4c(-c5ccc(F)cc5)nc5occn45)n3)C2)cc1 [Example 45, 4-[6-(4-fluorophenyl)imi-dazo[2,1-b][1,3]oxazol-5-yl]-N-{(3R)-1-[(4-methylphenyl)sulfonyl]piperidin-3-yl}pyr-imidin-2-amine]
IC50: 590 nM

O=S(=O)(c1cccc(C(F)(F)F)c1)N1CCC[C@@H](Nc2nccc(-c3c(-c4ccc(F)cc4)nc4occn34)n2)C1 [Example 46, 4-[6-(4-fluorophenyl)imi-dazo[2,1-b][1,3]oxazol-5-yl]-N-((3R)-1-{[3-(trifluoro-methyl)phenyl]sulfonyl}piper-idin-3-yl)pyrimidin-2-amine]
Mutant B-RAF % inhibition (@ 10 uM): 19 @ 10 uM %

O=S(=O)(c1ccc(F)c(Cl)c1)N1CCC[C@@H](Nc2nccc(-c3c(-c4ccc(F)cc4)nc4occn34)n2)C1 [Example 47, N-{(3R)-1-[(3-chloro-4-fluorophenyl)sulfonyl]piper-idin-3-yl}-4-[6-(4-fluorophenyl)imidazo[2,1-b][1,3]oxazol-5-yl]pyrimidin-2-amine]
IC50 (read-out: Mutant B-RAF IC50): 963 nM
